Reference: article PMC4538536, “In Silico-Based High-Throughput Screen for Discovery of Novel Combinations for Tuberculosis Treatment” (Antimicrobial Agents and Chemotherapy, 2015)
≈ marks a conversion by molar mass, not a printed value. Like-named read-outs stand apart in the source and are kept apart here.

Key:
M. tuberculosis H37Rv [1] = test: MIC determination, resazurin-based microplate assay; type: cell-based, Mycobacterium tuberculosis; conditions: Mycobacterium tuberculosis, single drug
M. tuberculosis H37Rv [2] = test: In vitro bactericidal-effect analysis (CFU enumeration of checkerboard wells); type: cell-based, Mycobacterium tuberculosis; conditions: single drug at its MIC (FIC of 1); positive = reduction in CFU
Method: For determining the extent of the bactericidal effect, sample wells which remained blue in the resazurin microtiter assay (REMA) and whose ΣFICs were within the synergistic-to-additive range (<0.7 for doublets and <1.5 for triplets) were plated on Middlebrook 7H10 agar medium and incubated at 37°C for 21 to 28 days, following which bacterial colonies were enumerated to obtain the net reduction in CFU in comparison to the counts for the untreated controls at the start of drug testing, as well as to that achieved when M. tuberculosis was exposed to each drug alone.

[3] = In vivo pharmacokinetics in infected mice (plasma, LC-MS/MS); set-up: species or system BALB/c mice; conditions: BALB/c, mouse, plasma, po, steady state, infected mice
Method: The drugs were formulated in 0.5% hydroxypropyl methyl cellulose (HPMC)–0.1% Tween 80 suspensions as 3- or 4-drug combinations. Formulations were prepared by weighing and adding each compound to the bottle, according to the design. Formulation vehicle was added, and the suspension was stirred overnight. Only uniform suspensions were used, while those that precipitated were abandoned. Formulations were prepared every week, and compound stability was estimated at the end of the week. Pharmacokinetics (PK) analysis was performed on infected mice on the 20th day of dosing. Blood samples were collected from each mouse at 0.5, 2, 4, 6, and 24 h after compound administration. Blood samples of about 30 μl were collected from mice in all groups by serial sampling via the saphenous vein into Microvette CB300 tubes (Starstedt, Germany) coated with EDTA, and plasma (10 μl) was separated following centrifugation. Plasma samples were stored at –20°C until analysis using liquid chromatography-tandem mass spectrometry (LC-MS/MS).
A 1-mg/ml stock solution of each compound was prepared in dimethyl sulfoxide (DMSO) for all of the analytes except PZA and LZD, for which the stock solution was 10 mg/ml in DMSO, and RIF, for which the stock solution was prepared in 50% acetonitrile in water. Three different sets of calibration standard (CS) combinations were prepared by 2-fold dilution of the stock solutions. CS set 1 contained analytes CLO, BDQ, PA824, PZA, and SQ109, CS set 2 contained analytes BTZ043, MXF, THI, EMB, and PZA, and CS set 3 contained LZD, INH, RIF, and PZA. A 16-point calibration curve was utilized for all analytes, and the standard curves ranged from 0.0005 to 20 μg/ml except for PZA and LZD, for which the standard curve range was 0.006 to 200 μg/ml. Plasma samples were precipitated by adding chilled acetonitrile (1:10, vol/vol) containing carbamazepine as an internal standard (10 ng/ml). Samples were vortexed and then centrifuged at 4,000 rpm for 30 min at 10°C. The resulting supernatant was mixed with the mobile phase (50% acetonitrile in water with 0.1% formic acid). Five microliters of the sample was injected on to a liquid chromatographic system (Acquity ultraperformance liquid chromatography [UPLC] system, Waters, Milford, MA) coupled to a triple-quadrupole mass spectrometer (Xevo TQ-S; Waters, Milford, MA). Samples were separated on an LC column (ACE 3 C18, 50 by 4.6 mm, 3 μm particle size; Advanced Chromatography Technologies, Aberdeen, Scotland) by isocratic elution with 40 parts of 20 mM ammonium formate containing 0.1% (vol/vol) formic acid and 60 parts of acetonitrile at a flow rate of 0.5 ml/min with a run time of 4 min. Samples were acquired in positive ion mode and detected by multiple reaction monitoring (MRM). The concentrations of the analyte were determined from a standard curve obtained by plotting known concentrations of the analyte against peak area ratios (analyte/internal standard peak response).
PK analyses of the plasma concentration-time relationships were performed with Phoenix software (version 6.2; Pharsight, USA). A noncompartmental analysis program, model 200, was used to calculate PK parameters. The maximum concentration of drug in plasma (Cmax), time to Cmax (Tmax), elimination half-life (t1/2), and area under the concentration-time curve (AUC) from time zero to infinity (AUC0–∞) were estimated. AUC was computed using the trapezoidal rule (linear up and log down), and the AUC0–∞ was considered only when the extrapolated AUC was not more than 20% of the original value. A minimum of three sample points in the terminal slope were used to calculate half-life.

[4] = 150 mg/kg, Group 7 quartet PA824 50/BDQ 25/MXF 400/PZA 150 mg/kg oral, read-out: AUC0-24 in Quartet
[5] = 150 mg/kg, Group 7 quartet PA824 50/BDQ 25/MXF 400/PZA 150 mg/kg oral, read-out: Cmax in Quartet
[6] = 400 mg/kg, Group 7 triplet PA824 50/BDQ 25/MXF 400 mg/kg oral, read-out: AUC0-24 in Triplet
[7] = 400 mg/kg, Group 7 triplet PA824 50/BDQ 25/MXF 400 mg/kg oral, read-out: Cmax in Triplet

## COc1c(N2C[C@@H]3CCCN[C@@H]3C2)c(F)cc2c(=O)c(C(=O)O)cn(C3CC3)c12 [Moxifloxacin]
M. tuberculosis H37Rv [1]
  MIC: 0.02 µM (≈ 0.00803 µg/mL)
M. tuberculosis H37Rv [2]
  ΔLog10 CFU/ml at the MIC: 1.40 Log10 CFU/ml
[3]; 150 mg/kg, Group 3 quartet BTZ043 37.5/SQ109 25/MXF 200/PZA 150 mg/kg oral, read-out: AUC0-24 in Quartet
  AUC(0-t): 13300 ± 3100 ng·h/mL
[3]; 150 mg/kg, Group 3 quartet BTZ043 37.5/SQ109 25/MXF 200/PZA 150 mg/kg oral, read-out: Cmax in Quartet
  Cmax: 3900 ± 600 ng/mL
[3]; [4]
  AUC(0-t): 76300 ± 13900 ng·h/mL
[3]; [5]
  Cmax: 5100 ± 700 ng/mL
[3]; 200 mg/kg, Group 3 triplet BTZ043 37.5/SQ109 25/MXF 200 mg/kg oral, read-out: AUC0-24 in Triplet
  AUC(0-t): 12100 ± 3500 ng·h/mL
[3]; 200 mg/kg, Group 3 triplet BTZ043 37.5/SQ109 25/MXF 200 mg/kg oral, read-out: Cmax in Triplet
  Cmax: 2200 ± 900 ng/mL
[3]; [6]
  AUC(0-t): 29800 ± 6600 ng·h/mL
[3]; [7]
  Cmax: 4600 ± 800 ng/mL

## CC(=O)NC[C@H]1CN(c2ccc(N3CCOCC3)c(F)c2)C(=O)O1 [Linezolid]
M. tuberculosis H37Rv [1]
  MIC: 2.31 µM (≈ 0.779 µg/mL)
M. tuberculosis H37Rv [2]
  ΔLog10 CFU/ml at the MIC: 0.25 Log10 CFU/ml
[3]; 130 mg/kg, Group 9 triplet EMB 100/SQ109 25/LZD 130 mg/kg oral, read-out: AUC0-24 in Triplet
  AUC(0-t): 154000 ± 8800 ng·h/mL
[3]; 130 mg/kg, Group 9 triplet EMB 100/SQ109 25/LZD 130 mg/kg oral, read-out: Cmax in Triplet
  Cmax: 14100 ± 100 ng/mL
[3]; 150 mg/kg, Group 9 quartet EMB 100/SQ109 25/LZD 130/PZA 150 mg/kg oral, read-out: AUC0-24 in Quartet
  AUC(0-t): 178000 ± 12200 ng·h/mL
[3]; 150 mg/kg, Group 9 quartet EMB 100/SQ109 25/LZD 130/PZA 150 mg/kg oral, read-out: Cmax in Quartet
  Cmax: 14900 ± 1200 ng/mL

## CC(=O)Nc1ccc(/C=N/NC(N)=S)cc1 [Thiacetazone]
M. tuberculosis H37Rv [1]
  MIC: 8.47 µM (≈ 2 µg/mL)
M. tuberculosis H37Rv [2]
  ΔLog10 CFU/ml at the MIC: 0.76 Log10 CFU/ml
[3]; 25 mg/kg, Group 6 triplet BTZ043 37.5/THI 800/SQ109 25 mg/kg oral, read-out: AUC0-24 in Triplet
  AUC(0-t): 87000 ± 52100 ng·h/mL
[3]; 25 mg/kg, Group 6 triplet BTZ043 37.5/THI 800/SQ109 25 mg/kg oral, read-out: Cmax in Triplet
  Cmax: 8500 ± 2800 ng/mL
[3]; 150 mg/kg, Group 6 quartet BTZ043 37.5/THI 800/SQ109 25/PZA 150 mg/kg oral, read-out: AUC0-24 in Quartet
  AUC(0-t): 68000 ± 16000 ng·h/mL
[3]; 150 mg/kg, Group 6 quartet BTZ043 37.5/THI 800/SQ109 25/PZA 150 mg/kg oral, read-out: Cmax in Quartet
  Cmax: 5100 ± 400 ng/mL

## O=[N+]([O-])c1cn2c(n1)OC[C@@H](OCc1ccc(OC(F)(F)F)cc1)C2 [PA824]
M. tuberculosis H37Rv [1]
  MIC: 1.09 µM (≈ 0.392 µg/mL)
M. tuberculosis H37Rv [2]
  ΔLog10 CFU/ml at the MIC: 1.07 Log10 CFU/ml
[3]; 50 mg/kg, Group 1 triplet CFZ 20/BDQ 25/PA824 50 mg/kg oral, read-out: AUC0-24 in Triplet
  AUC(0-t): 76700 ± 18500 ng·h/mL
[3]; 50 mg/kg, Group 1 triplet CFZ 20/BDQ 25/PA824 50 mg/kg oral, read-out: Cmax in Triplet
  Cmax: 11200 ± 2400 ng/mL
[3]; 50 mg/kg, Group 2 triplet SQ109 25/BDQ 25/PA824 50 mg/kg oral, read-out: AUC0-24 in Triplet
  AUC(0-t): 86200 ± 8600 ng·h/mL
[3]; 50 mg/kg, Group 2 triplet SQ109 25/BDQ 25/PA824 50 mg/kg oral, read-out: Cmax in Triplet
  Cmax: 9300 ± 2300 ng/mL
[3]; 100 mg/kg, Group 8 triplet PA824 50/BDQ 25/EMB 100 mg/kg oral, read-out: AUC0-24 in Triplet
  AUC(0-t): 119000 ± 13800 ng·h/mL
[3]; 100 mg/kg, Group 8 triplet PA824 50/BDQ 25/EMB 100 mg/kg oral, read-out: Cmax in Triplet
  Cmax: 13300 ± 500 ng/mL
[3]; 150 mg/kg, Group 1 quartet CFZ 20/BDQ 25/PA824 50/PZA 150 mg/kg oral, read-out: AUC0-24 in Quartet
  AUC(0-t): 60900 ± 8000 ng·h/mL
[3]; 150 mg/kg, Group 1 quartet CFZ 20/BDQ 25/PA824 50/PZA 150 mg/kg oral, read-out: Cmax in Quartet
  Cmax: 7800 ± 1100 ng/mL
[3]; 150 mg/kg, Group 2 quartet SQ109 25/BDQ 25/PA824 50/PZA 150 mg/kg oral, read-out: AUC0-24 in Quartet
  AUC(0-t): 60700 ± 10000 ng·h/mL
[3]; 150 mg/kg, Group 2 quartet SQ109 25/BDQ 25/PA824 50/PZA 150 mg/kg oral, read-out: Cmax in Quartet
  Cmax: 7300 ± 1100 ng/mL
[3]; [4]
  AUC(0-t): 92100 ± 12700 ng·h/mL
[3]; [5]
  Cmax: 6000 ± 800 ng/mL
[3]; 150 mg/kg, Group 8 quartet PA824 50/BDQ 25/EMB 100/PZA 150 mg/kg oral, read-out: AUC0-24 in Quartet
  AUC(0-t): 66400 ± 19000 ng·h/mL
[3]; 150 mg/kg, Group 8 quartet PA824 50/BDQ 25/EMB 100/PZA 150 mg/kg oral, read-out: Cmax in Quartet
  Cmax: 9800 ± 3600 ng/mL
[3]; [6]
  AUC(0-t): 134000 ± 41700 ng·h/mL
[3]; [7]
  Cmax: 8400 ± 1000 ng/mL
